{"source": "patent US6627647B1", "about": "“Substituted 1-(4-aminophenyl)imidazoles and their use as anti-inflammatory agents” (Boehringer Ingelheim Pharmaceuticals, Inc., priority 2000, dated 2003)", "system": "IL-2 promoter/enhancer", "test": "IL-2 promoter assay (luciferase reporter in J.1F/C6 Jurkat cells)", "assay_type": "cell-based", "details": "Homo sapiens; J.1F/C6 Jurkat cell line, induction with ionomycin and PMA; read-out: IC50, inhibition of luciferase activity in IL-2 promoter assay", "excerpt": "The IL-2 promoter assay measures transcriptional activation of a luciferase reporter gene which has been placed under control of the IL-2 promoter/enhancer. All the known regulatory features of the IL-2 gene are contained within a ˜300 bp sequence immediately upstream of the open reading frame. The region −328 to +35 relative to the transcription start site of the IL-2 gene is obtained by […] of human genomic DNA and is subcloned into the promoterless luciferase reporter vector pGL2-Basic (Promega). The resulting construct, pIL2P-luc, and a vector containing a neomycin resistance gene, pcDNA/Neo (Invitrogen), are linearized and stably transfected into Jurkat cells (a human T-cell line) by electroporation.\nFor screening compounds, the cells are pelleted by centrifugation, washed once with PBS, resuspended in RPMI (phenol red-free) containing 5% FBS, and dispensed into 96-well, white microtiter plates (Packard) at 50,000 cells/well. The cells are pre-incubated with compounds (1 μg/ml) for 15 min prior to addition of ionomycin (1 μg/ml) and PMA (10 ng/ml) in a final volume of 100 μl. Following a 5 hr incubation at 37° C. in a humidified incubator, 100 μl of Luc-Lite lysis buffer/luciferase assay buffer (Promega) is added and luminescence measured using a Packard TopCount scintillation counter/luminometer."}
{"smiles": "C=CC[C@@H]1/C=C(\\C)C[C@H](C)C[C@H](OC)[C@H]2O[C@@](O)(C(=O)C(=O)N3CCCC[C@H]3C(=O)O[C@H](/C(C)=C/[C@@H]3CC[C@@H](O)[C@H](OC)C3)[C@H](C)[C@@H](O)CC1=O)[C@H](C)C[C@@H]2OC", "note": "[FK506]", "values": [{"measurement": "IC50", "value": 300, "unit": "pM"}]}
